In patent publication US20220146500A1, “COMPOSITIONS AND METHODS FOR ENHANCING MUCOSAL IMMUNITY” (Yale University, priority 2019, published 2022):

Key:
C. muridarum = conditions: upper reproductive tract epithelial cell line; cited from earlier work
polyclonal T cell lines = experiment: Culture of Chlamydia-specific polyclonal T cell lines with TGFβ1, IL-13 in supernatant after anti-CD3 activation; type: cell-based, mouse
Experimental: FIG. 9 is a histogram depicting polyclonal T cell lines with fading IL-13 production cultured as per usual protocol and, in parallel, the usual protocol plus 10 ng/ml TGFβ1. At the end of one week the T cell lines were activated with immobilized anti-CD3 and IL-13 levels measured in culture supernatant. […] It was also noted that expansions in TGFβ1 conditions yielded˜50% more cells per well.
Conventional multifunction Chlamydia-specific Th1 clone 4uvmo-3 was previously described (Jayarapu et al., 2009, Infect Immun 77:4469-4479). For the new B-cell APC-derived T cells C57BL/6 mice were treated with 2.5 mg of medroxyprogesterone (Pfizer) delivered subcutaneously, then infected 7 days later with 5×10^4 IFU C. muridarum. Mice that cleared infection, >6 weeks post-infection, were used as the source of immune B and T cells. Initial Chlamydia-specific immune-B-cell-derived polyclonal T cell populations and clones were derived as follows. Splenocytes were harvested from immune mice. Immune B cells were purified from a portion of those splenocytes by “untouched” magnetic bead separation (Miltenyi Biotech). Immune B cells were pulsed with UV-MoPn (3.5×10^6 IFU equivalents per 7.5×10^5 B cells suspended at 7.5×10^6/ml; ˜5 IFU/cell) or soluble antigen (7.5 ul per 7.5×10^5 B cells suspended at 7.5×10^6/ml) for 1 h at 37° C. Antigen-pulsed immune B cells were transferred to 7.5 cc of “RPMI complete media”, pelleted, media containing antigen removed, then washed two more times with 7.5 cc of media (˜400,000-fold) to eliminate all non-cell bound or internalized Chlamydia antigen; the purpose of extended washing was to ensure that antigen presentation was limited to immune B cells. Primary stimulation wells were setup with 2.5×10^6 immune splenocytes plus 7.5×10^5 antigen-pulsed immune B cells in 0.75 ml “RPMI complete media” supplemented with recombinant cytokines and conditioned media as previously described (Johnson et al., 2014, Immunology 142:248-257); later T cell derivations during the course of the project included addition of 5 ng/ml recombinant murine TGFβ1 to the media. Limiting dilution cloning was done in media supplemented with recombinant cytokines/conditioned media with 10-20 ng/ml TGFβ1. Re-stimulation/maintenance of T cell clones was done weekly in 48-well plates by adding 100-200 k T cell clone cells to 1.5×10^6 irradiated naive splenocytes and 7.5×10^5 irradiated relevant-antigen-pulsed/washed immune B cells as feeders in media supplemented with recombinant cytokines/conditioned media including 2.5-10 ng/ml TGFβ1. Recombinant mouse cytokines were purchased from the same vendor (R&D Systems; Minneapolis, Minn.) except for TGFP1 (Ebioscience, San Diego, Calif.). […]

Substance | effect on C. muridarum replication (C. muridarum) | IL-13 production after one week of culture (polyclonal T cell lines; 10 ng/ml TGFβ1, lines with fading IL-13 production, anti-CD3 activation) | more cells per well in expansions (polyclonal T cell lines; TGFβ1 conditions versus usual protocol) | durable IL-13 production with increasing passage number (polyclonal T cell lines; immune-B-cell-APC-derived polyclonal T cell lines) | IL-13 production (polyclonal T cell lines; immune-splenocyte-APC-derived T cell lines)
IL-13: Th2 cytokine | modestly enhances C. muridarum replication |  |  |  | 
TGFβ1: recombinant murine TGFβ1 |  | With the exception of B2 all the lines made more IL-13 | ~50% | required addition of TGFβ1 to the media | did not result in IL-13 production
